Measured values as given in paper PMC6862080, “Blood Compatibility—An Important but Often Forgotten Aspect of the Characterization of Antimicrobial Peptides for Clinical Application” (International Journal of Molecular Sciences, 2019).
Peptide text beside a SMILES is read from it. * marks the point of attachment. Myristoyl = CCCCCCCCCCCCCC(=O)*; Lauroyl = CCCCCCCCCCCC(=O)*; Octanoyl = CCCCCCCC(=O)*

Key:
E. coli (ATCC 11303) = assay: microbe, parasite or virus in culture; format: cell-based; conditions: ATCC 11303, pH 7.4
erythrocyte membranes [1] = assay: Hemolysis in RBC suspended in PBS (Kahn method); format: cell-based, human; conditions: pH 7.4
Experimental: (§1) Hemolysis was tested with fresh citrate anticoagulated blood from healthy volunteers as well as with blood cells which were suspended in phosphate buffered saline (10 mM pH 7.4). Afterwards, 100 μL AMP solution was added to 500 μL blood to finally achieve AMP concentrations of 8, 32, and 128 μg/mL. As the negative and positive control, 100 μL PBS buffer and 100 μL 12% Triton-X buffer was added to 500 μL blood, respectively. After incubation on an orbital shaker for 60 min at 37 °C, the cells were removed by centrifugation and 100 μL of the supernatant were transferred to a 96 well microplate for hemolysis measurement. The hemolysis was calculated from the extinction at the wavelengths 562, 578, and 598 nm with a Synergy 2 microplate reader (BioTek, Winooski, VT, USA) according to the method published by Kahn.

LPS from P. aeruginosa = assay: Endotoxin inactivation in human serum, chromogenic LAL test (P. aeruginosa LPS); format: biochemical; conditions: 500 ng/mL peptide, n = 3; for Reduction of the endotoxin activity in serum vs positive control (in words): 5 ng/mL P. aeruginosa LPS
Experimental: The LPS neutralization study in serum was conducted using a chromogenic Limulus Amebocyte Lysate (LAL) test (Charles River Laboratories, MA, USA). The LAL test is the most established method for quantifying LPS. This method uses amebocyte lysate from Limulus polyphemus, wherein the presence of LPS triggers a defense mechanism that induces coagulation. The LAL test is used successfully for detection of LPS in a wide variety of industrial, pharmaceutical, and research applications, such as water supplies, parenteral fluids, drugs for intravenous administration, and certain biologic fluids (e.g., cerebrospinal fluid). Therefore, serum, which was obtained from freshly drawn blood, was spiked with 500 ng/mL AMPs, PMB or LL-37 before adding 5 ng/mL LPS from E. coli or P. aeruginosa. As positive and negative controls, native serum with and without LPS was used, respectively. Endotoxin activity was measured using the LAL assay according to the manufacturer’s specifications.

erythrocyte membranes [2] = assay: Hemolysis in whole blood (Kahn method); format: cell-based, human
Experimental: as §1

S. aureus (ATCC 12600) = assay: microbe, parasite or virus in culture; format: cell-based; conditions: ATCC 12600, pH 7.4
plasmatic coagulation = assay: Clotting batch test in citrate plasma; format: biochemical, human
Experimental: Since the acylated LF11-322 peptides cause plasmatic coagulation of citrate anticoagulated plasma, separate clotting experiments were performed with this peptide group. The aim was to check whether the coagulation activation is dependent on the AMP concentration and on the acyl chain length. […] Plasma without additives served as the negative control, whereas plasma spiked with CaCl2/MgCl2 (500/250 mM) solution to restore the physiological calcium and magnesium level in plasma was used as the positive control. Incubation was performed at 37 °C for 60 min. […] In order to ensure that the measured turbidity of the plasma is caused by fibrin formation, the fibrinogen and D-Dimer concentrations were additionally determined. During plasmatic clotting, the fibrinogen level decreases and the D-Dimer level in serum increases. Both were analyzed on a Sysmex CA560 with the corresponding reagents (Siemens Healthineers, Erlangen, Germany).

platelets [3] = assay: Platelet activation, platelet count in citrate anticoagulated PRP; format: cell-based, human; conditions: 128 μg/mL, 2 h, 37 °C, Sysmex analyzer, n = 3
Experimental: (§2) Since it was observed that some AMPs are able to activate the plasmatic coagulation system of heparinized and citrate anticoagulated blood, the influence of this peptides on platelets was investigated. For this purpose, fresh heparinized and citrated blood were collected from three donors. The blood was centrifuged at 500 g for 5 min and platelet rich plasma (PRP) was obtained. The PRP was incubated at 37 °C for 2 h with 128 μg/mL AMP, PMB, and LL-37. PRP without any additives served as the control. After incubation, the platelet number was determined by a Sysmex Automated Hematology Analyzer KX-21-N (Kobe, Japan). In addition, the PRP samples were prepared for SEM to visualize the morphology of the thrombocytes. After incubation, 10 μL PRP were diluted with 990 μL PBS (0.01 M) and filtered through a 0.2 μm membrane (Membrane Filter Isopore 0.2 μm, Merck, Darmstadt, Germany). The platelets were retained on the membrane, washed with 1 mL PBS, and fixed with 1 mL glutaraldehyde solution (2.5% glutaraldehyde in physiological saline solution). After an incubation time of 60 min, the samples were dehydrated using a series of ethanol (30%, 50%, 60%, 70%, 80%, 90%, and 100%). Afterwards the samples were dried overnight at RT, sputtered with gold and visualized with a scanning electron microscope (FLEXSem 1000, Hitachi, Japan).

platelets [4] = assay: Platelet activation, platelet count in heparin anticoagulated PRP; format: cell-based, human; conditions: 128 μg/mL, 2 h, 37 °C, Sysmex analyzer, n = 3
Experimental: as §2

platelets [5] = assay: SEM imaging of platelet morphology in PRP; format: cell-based, human; conditions: 128 μg/mL, 2 h, 37 °C
Experimental: as §2

human leukocytes = assay: Cytotoxicity on leukocytes in whole blood, flow cytometry (7-AAD); format: cell-based; conditions: 128 μg/mL, n = 3
Experimental: The measurement of the membrane destabilization of leukocytes by AMPs was carried out by flow cytometry. […] Whole blood without AMPs or antibiotics was used as a control. After incubation, the proportion of apoptotic and dead cells was determined by flow cytometry. To achieve this, blood samples were diluted 1:100 with 0.01 M phosphate buffered saline and centrifuged at 300 g for 10 min. The supernatant was removed, and cells were stained with 10 μL CD45 pacific blue (leukocyte marker; Beckman coulter, Brea, CA) and 10 μL 7-AAD (a marker for dead cells; Sigma-Aldrich, Steinheim, Germany) for 15 min at room temperature in the dark. After incubation, 1.8 mL lysis buffer (1:10 dilution in distilled water) was added, mixed, and incubated for 10 min at room temperature in the dark. This was followed by two washing steps (2300 g, 5 min, room temperature) and the cells were resuspended in a final volume of 200 μL 0.01 M PBS for measurement. Flow cytometry was performed using a Gallios flow cytometer (Beckman Coulter, Brea, CA, USA) equipped with 405 nm, 488 nm, and 638 nm lasers and the Kaluza Analysis Software (Beckman Coulter, Brea, CA, USA), which was used for measurement and data analysis. Blood cells which were incubated in 70% methanol before staining served as the positive control and blood cells without any additives were used as the negative control.

Row | Compound | Minimal Inhibitory Concentration, E. coli, PBS (E. coli (ATCC 11303)) [µg/mL] | Free Hemoglobin, RBC in PBS, 8 μg/mL (erythrocyte membranes [1]) [mg/dL] | Free Hemoglobin, RBC in PBS, 32 μg/mL (erythrocyte membranes [1]) [mg/dL] | Reduction of the endotoxin activity in serum vs positive control (in words) (LPS from P. aeruginosa) | Free Hemoglobin, BLOOD, 8 μg/mL (erythrocyte membranes [2]) [mg/dL] | Free Hemoglobin, BLOOD, 32 μg/mL (erythrocyte membranes [2]) [mg/dL] | Free Hemoglobin, BLOOD, 128 μg/mL (erythrocyte membranes [2]) [mg/dL] | Minimal Inhibitory Concentration, S. aureus, PBS (S. aureus (ATCC 12600)) [µg/mL] | Reduction of endotoxin activity of P. aeruginosa LPS (LPS from P. aeruginosa; 5 ng/mL LPS) [%] | Peptide concentration that triggers clotting of citrate plasma (plasmatic coagulation) [µg/mL] | Platelet count in citrate anticoagulated PRP vs control (in words) (platelets [3]) | Platelet count in heparinized PRP vs control (in words) (platelets [4]) | Platelet morphology by SEM, citrate anticoagulated PRP (in words) (platelets [5]) | Percentage of dead leukocytes (human leukocytes; citrate anticoagulated whole blood, 37 °C, 120 min / 60 min, CD45, flow cytometry) [%] | Cytotoxic effect on leukocytes in whole blood (in words) (human leukocytes; whole blood, flow cytometry)
1 | CCCCCCCCCCCC(=O)N[C@@H](Cc1ccccc1)C(=O)N[C@@H](Cc1c[nH]c2ccccc12)C(=O)N[C@@H](CCCNC(=N)N)C(=O)N[C@@H](CCCNC(=N)N)C(=O)N[C@@H](Cc1ccccc1)C(=O)N[C@@H](Cc1c[nH]c2ccccc12)C(=O)N[C@@H](CCCNC(=N)N)C(=O)N[C@@H](CCCNC(=N)N)C(N)=O [LF11-227-C12] (Lauroyl-FWRRFWRR-NH2) | > 128 | 11.6 ± 3.2 | 26.3 ± 12.3 | significant (p < 0.05) reduction | 2.6 ± 1.4 | 4.3 ± 2.5 | 2.5 ± 3.6 | > 128 | – | – | – | – | – | – | –
2 | CCCCCCCCCCCCCC(=O)N[C@@H](Cc1ccccc1)C(=O)N[C@@H](Cc1c[nH]c2ccccc12)C(=O)N[C@@H](CCCNC(=N)N)C(=O)N[C@@H](CCCNC(=N)N)C(=O)N[C@@H](Cc1ccccc1)C(=O)N[C@@H](Cc1c[nH]c2ccccc12)C(=O)N[C@@H](CCCNC(=N)N)C(=O)N[C@@H](CCCNC(=N)N)C(N)=O [LF11-227-C14] (Myristoyl-FWRRFWRR-NH2) | > 128 | 18.3 ± 12.8 | 41.9 ± 19.9 | significant (p < 0.05) reduction | 3.4 ± 2.1 | 3.1 ± 0.9 | 2.6 ± 3.5 | > 128 | 37 ± 5 | – | – | – | – | – | –
3 | CCCCCCCC(=O)N1CCC[C@H]1C(=O)N[C@@H](Cc1ccccc1)C(=O)N[C@@H](Cc1c[nH]c2ccccc12)C(=O)N[C@@H](CCCNC(=N)N)C(=O)N[C@H](C(=O)N[C@@H](CCCNC(=N)N)C(=O)N[C@H](C(=O)N[C@@H](CCCNC(=N)N)C(=O)N[C@@H](CCCNC(=N)N)C(N)=O)[C@@H](C)CC)[C@@H](C)CC [LF11-322-C8] (Octanoyl-PFWRIRIRR-NH2) | 8 | 12.9 ± 1.5 | 26.1 ± 2.5 | – | 2.2 ± 0.5 | 9.0 ± 3.8 | 2.7 ± 3.7 | 8 | – | ≥ 256 | – | – | – | – | –
4 | CCCCCCCCCCCC(=O)N1CCC[C@H]1C(=O)N[C@@H](Cc1ccccc1)C(=O)N[C@@H](Cc1c[nH]c2ccccc12)C(=O)N[C@@H](CCCNC(=N)N)C(=O)N[C@H](C(=O)N[C@@H](CCCNC(=N)N)C(=O)N[C@H](C(=O)N[C@@H](CCCNC(=N)N)C(=O)N[C@@H](CCCNC(=N)N)C(N)=O)[C@@H](C)CC)[C@@H](C)CC [LF11-322-C12] (Lauroyl-PFWRIRIRR-NH2) | 32 | 15.5 ± 1.2 | 36.1 ± 2.0 | – | 2.4 ± 2.6 | 8.6 ± 8.6 | 3.2 ± 4.5 | 16 | – | – | significantly reduce the platelet count | no significant difference in platelet count | – | – | –
5 | CCCCCCCCCCCCCC(=O)N1CCC[C@H]1C(=O)N[C@@H](Cc1ccccc1)C(=O)N[C@@H](Cc1c[nH]c2ccccc12)C(=O)N[C@@H](CCCNC(=N)N)C(=O)N[C@H](C(=O)N[C@@H](CCCNC(=N)N)C(=O)N[C@H](C(=O)N[C@@H](CCCNC(=N)N)C(=O)N[C@@H](CCCNC(=N)N)C(N)=O)[C@@H](C)CC)[C@@H](C)CC [LF11-322-C14] (Myristoyl-PFWRIRIRR-NH2) | 64 | 12.9 ± 1.2 | 31.8 ± 3.14 | – | 2.9 ± 3.4 | 5.4 ± 3.2 | 2.9 ± 4.2 | 8 | – | ≥ 32 | significantly reduce the platelet count | no significant difference in platelet count | hardly any intact platelets left | 21 ± 16 | –
6 | H-PFWRIRIRR-NH2 [LF11-322-NH2] | 4 | 10.4 ± 2.4 | 14.2 ± 3.5 | – | 5.0 ± 5.3 | 5.9 ± 4.4 | 2.6 ± 3.7 | 4 | – | – | – | – | strongly change their shape | – | no cytotoxic properties on leukocytes
